2 compounds from patent US6863833B1, “Microfabricated apertures for supporting bilayer lipid membranes” (The Board of Trustees of the Leland Stanford Junior …, priority 2001, dated 2005) can be followed below.

Assay [1] addresses staphylococcal α-hemolysin (αHL) channels (Staphylococcus aureus, UniProt P09616). Type of assay: biochemical.
Assay [2] is described as follows: Gramicidin D conductance change in lipid bilayer formed across nanoaperture. It counts as biochemical. As to conditions: 5 to 20 μl of 2 mg/ml gD in ethanol added to each bath; within minutes; capacitance remained constant. The text has this: Lipid bilayers were formed by the method of Montal and Mueller (1972). In practicing the Langmuir-Blodgett technique, one raises two lipid monolayers across an aperture, allowing the lipids to align their hydrophobic tail portions across the aperture so as to form a lipid bilayer. Because of the hydrophobic nature of the lipid tails, in order to form stable bilayers the surface of a BSP must also be hydrophobic. If the substrate is hydrophobic, the lipids can smoothly transition from coating the substrate to spanning the aperture. To reverse the wetting properties of the naturally hydrophilic silicon nitride, the silicon nitride was coated with an alkylsilane (octyltrichlorosilane). Application of this coating was quite simple and very effective. It was not found to be possible to form a bilayer with untreated devices. Use of longer carbon chain silanes or alternative-materials to make the surface even more hydrophobic would further increase bilayer stability.
For smaller apertures, it was more difficult to observe the capacitance change the background. In this case, membrane-bound proteins that affect the electrical properties of the bilayer, such as carriers and ion channels, offered the best proof of the formation of a bilayer. The ion channel peptide Gramicidin D (gD), was chosen for ease of use and large conductance change. […]

Sequence of staphylococcal α-hemolysin (αHL) channels (P09616 27-319 limits assumed): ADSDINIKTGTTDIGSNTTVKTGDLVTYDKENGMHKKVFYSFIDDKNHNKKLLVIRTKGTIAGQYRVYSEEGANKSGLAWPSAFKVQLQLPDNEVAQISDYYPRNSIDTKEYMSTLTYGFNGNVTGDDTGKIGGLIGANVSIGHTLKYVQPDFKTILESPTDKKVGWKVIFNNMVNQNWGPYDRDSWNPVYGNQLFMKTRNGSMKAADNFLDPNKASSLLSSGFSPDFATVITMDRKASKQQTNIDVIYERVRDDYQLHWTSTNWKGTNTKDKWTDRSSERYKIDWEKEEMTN

Regarding `OC[C@H]1O[C@@H]2O[C@H]3[C@H](O)[C@@H](O)[C@@H](O[C@H]4[C@H](O)[C@@H](O)[C@@H](O[C@H]5[C@H](O)[C@@H](O)[C@@H](O[C@H]6[C@H](O)[C@@H](O)[C@@H](O[C@H]7[C@H](O)[C@@H](O)[C@@H](O[C@H]8[C@H](O)[C@@H](O)[C@@H](O[C@H]1[C@H](O)[C@H]2O)O[C@@H]8CO)O[C@@H]7CO)O[C@@H]6CO)O[C@@H]5CO)O[C@@H]4CO)O[C@@H]3CO` [βCD, β-cyclodextrin], the “current reduction when a channel becomes blocked” value in assay [1] is given as 70±4%. Gramicidin D: in assay [2], the “conductance of the bilayer” value is recorded as “dramatically increased”.
